This is an account of results in article PMC11167047 (Cell Death Discovery, 2024).

Common to all, as to test: kinome screen (33PanQinase)
Common to all, as to assay type: biochemical

In one experiment the target is T1, JNK3 (Homo sapiens, UniProt P53779).
T1 construct: purchased Reaction Biology Europe GmbH (formerly ProQinase)
On the procedure:
(§1) The Kinome Screening was performed by Reaction Biology Europe GmbH (http://reactionbiology.com; Freiburg i. Br., Germany).

The next experiment deals with T2, DAPK1 (Homo sapiens, UniProt P53355).
T2 construct: purchased Reaction Biology Europe GmbH (formerly ProQinase)
T2 sequence (P53355 whole entry): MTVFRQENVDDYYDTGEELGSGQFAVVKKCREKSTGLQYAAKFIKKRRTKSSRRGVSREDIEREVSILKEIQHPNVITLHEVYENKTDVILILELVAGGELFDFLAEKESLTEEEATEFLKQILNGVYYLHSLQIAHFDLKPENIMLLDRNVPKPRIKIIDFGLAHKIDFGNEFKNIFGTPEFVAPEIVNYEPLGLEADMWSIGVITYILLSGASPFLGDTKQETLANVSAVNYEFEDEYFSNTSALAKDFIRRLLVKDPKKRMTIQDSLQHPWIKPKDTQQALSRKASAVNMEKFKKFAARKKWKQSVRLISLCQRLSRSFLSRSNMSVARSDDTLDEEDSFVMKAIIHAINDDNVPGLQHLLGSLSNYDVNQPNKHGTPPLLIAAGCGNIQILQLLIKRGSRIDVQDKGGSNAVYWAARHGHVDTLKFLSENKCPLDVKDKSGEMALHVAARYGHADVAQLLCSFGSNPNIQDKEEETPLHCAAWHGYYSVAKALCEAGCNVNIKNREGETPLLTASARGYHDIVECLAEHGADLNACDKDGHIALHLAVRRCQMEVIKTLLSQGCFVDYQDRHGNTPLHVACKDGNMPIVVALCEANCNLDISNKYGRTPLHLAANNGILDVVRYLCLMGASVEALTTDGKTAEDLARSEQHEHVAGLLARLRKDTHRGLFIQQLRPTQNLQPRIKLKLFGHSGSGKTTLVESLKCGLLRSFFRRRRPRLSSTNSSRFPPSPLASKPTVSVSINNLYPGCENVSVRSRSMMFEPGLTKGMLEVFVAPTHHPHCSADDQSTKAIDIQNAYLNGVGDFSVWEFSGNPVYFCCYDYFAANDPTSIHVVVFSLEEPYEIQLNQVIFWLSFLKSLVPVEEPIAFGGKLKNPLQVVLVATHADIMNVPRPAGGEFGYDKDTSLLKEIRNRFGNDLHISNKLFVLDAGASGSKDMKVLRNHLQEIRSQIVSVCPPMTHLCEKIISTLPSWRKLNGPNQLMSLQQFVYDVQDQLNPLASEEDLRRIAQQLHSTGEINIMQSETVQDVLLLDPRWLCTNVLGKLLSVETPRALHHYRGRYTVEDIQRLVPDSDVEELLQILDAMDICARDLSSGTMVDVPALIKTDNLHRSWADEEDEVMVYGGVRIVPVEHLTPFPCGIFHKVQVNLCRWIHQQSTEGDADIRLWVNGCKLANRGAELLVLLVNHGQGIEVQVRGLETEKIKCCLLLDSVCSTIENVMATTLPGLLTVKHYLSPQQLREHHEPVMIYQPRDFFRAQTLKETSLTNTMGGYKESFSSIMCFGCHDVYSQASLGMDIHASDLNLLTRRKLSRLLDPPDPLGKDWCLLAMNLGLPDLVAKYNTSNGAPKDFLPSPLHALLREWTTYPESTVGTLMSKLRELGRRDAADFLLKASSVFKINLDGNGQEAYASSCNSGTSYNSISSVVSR
On the procedure: as §1

The target in the next experiment is T3, CDK20/CycH (Homo sapiens, UniProt Q8IZL9).
T3 construct: purchased Reaction Biology Europe GmbH (formerly ProQinase)
T3 sequence (Q8IZL9 whole entry): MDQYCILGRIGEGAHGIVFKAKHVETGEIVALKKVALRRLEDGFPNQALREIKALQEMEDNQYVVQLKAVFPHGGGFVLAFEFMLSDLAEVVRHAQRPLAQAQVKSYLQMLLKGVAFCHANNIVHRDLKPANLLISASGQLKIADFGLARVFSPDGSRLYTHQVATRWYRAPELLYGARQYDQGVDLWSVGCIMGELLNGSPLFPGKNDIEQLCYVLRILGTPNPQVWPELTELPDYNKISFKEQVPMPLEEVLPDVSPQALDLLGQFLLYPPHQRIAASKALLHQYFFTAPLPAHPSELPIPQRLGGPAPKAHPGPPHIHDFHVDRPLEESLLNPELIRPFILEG
T3 sequence (P51946 whole entry partner): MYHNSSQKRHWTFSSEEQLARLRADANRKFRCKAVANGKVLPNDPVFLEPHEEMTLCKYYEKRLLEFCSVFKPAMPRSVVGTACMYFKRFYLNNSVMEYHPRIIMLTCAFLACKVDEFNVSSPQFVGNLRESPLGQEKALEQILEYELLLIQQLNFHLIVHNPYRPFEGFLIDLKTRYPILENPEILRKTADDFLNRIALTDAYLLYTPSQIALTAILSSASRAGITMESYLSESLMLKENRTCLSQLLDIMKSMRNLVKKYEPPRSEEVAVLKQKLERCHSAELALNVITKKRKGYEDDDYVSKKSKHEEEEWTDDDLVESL
The procedure:
as §1

The target of the next experiment is T4, STK17A (Homo sapiens, UniProt Q9UEE5).
T4 construct: purchased Reaction Biology Europe GmbH (formerly ProQinase)
T4 sequence (Q9UEE5 1-414): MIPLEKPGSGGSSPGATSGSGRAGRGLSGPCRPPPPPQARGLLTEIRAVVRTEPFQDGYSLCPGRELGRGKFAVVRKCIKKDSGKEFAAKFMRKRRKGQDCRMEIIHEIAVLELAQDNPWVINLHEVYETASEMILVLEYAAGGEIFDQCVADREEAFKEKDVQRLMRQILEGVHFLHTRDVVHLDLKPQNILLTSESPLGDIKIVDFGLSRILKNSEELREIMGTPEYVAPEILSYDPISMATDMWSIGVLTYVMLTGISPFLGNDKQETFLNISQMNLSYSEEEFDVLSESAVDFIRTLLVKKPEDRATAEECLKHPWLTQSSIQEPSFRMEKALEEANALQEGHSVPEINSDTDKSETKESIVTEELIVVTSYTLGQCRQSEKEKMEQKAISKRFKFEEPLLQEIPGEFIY
The procedure:
as §1

The target in the next experiment is T5, DDR2 (Homo sapiens, UniProt Q16832).
T5 construct: purchased Reaction Biology Europe GmbH (formerly ProQinase)
T5 sequence (Q16832 22-855): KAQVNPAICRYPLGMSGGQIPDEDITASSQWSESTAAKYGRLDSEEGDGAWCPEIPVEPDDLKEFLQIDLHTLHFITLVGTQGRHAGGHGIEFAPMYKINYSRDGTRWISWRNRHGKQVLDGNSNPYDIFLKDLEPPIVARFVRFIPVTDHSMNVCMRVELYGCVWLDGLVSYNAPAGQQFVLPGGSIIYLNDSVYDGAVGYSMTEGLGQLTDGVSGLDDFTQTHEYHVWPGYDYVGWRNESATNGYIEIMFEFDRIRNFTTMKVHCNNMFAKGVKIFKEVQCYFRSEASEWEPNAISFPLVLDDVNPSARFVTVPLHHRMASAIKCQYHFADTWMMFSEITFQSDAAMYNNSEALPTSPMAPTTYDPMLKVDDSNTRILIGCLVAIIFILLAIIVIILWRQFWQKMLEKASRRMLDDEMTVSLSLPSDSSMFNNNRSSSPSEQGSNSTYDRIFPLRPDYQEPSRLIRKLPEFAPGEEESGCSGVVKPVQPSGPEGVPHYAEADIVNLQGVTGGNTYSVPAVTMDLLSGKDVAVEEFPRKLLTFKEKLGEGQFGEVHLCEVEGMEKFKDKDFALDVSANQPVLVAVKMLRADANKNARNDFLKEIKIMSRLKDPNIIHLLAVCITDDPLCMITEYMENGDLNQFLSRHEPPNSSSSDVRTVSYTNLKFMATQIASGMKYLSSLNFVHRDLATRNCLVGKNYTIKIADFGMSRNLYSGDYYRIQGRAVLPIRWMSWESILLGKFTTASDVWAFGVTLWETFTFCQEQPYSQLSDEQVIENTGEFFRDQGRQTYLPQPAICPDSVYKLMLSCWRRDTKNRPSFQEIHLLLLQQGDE
On the procedure:
as §1

The next experiment deals with T6, AXL (Homo sapiens, UniProt P30530).
T6 construct: purchased Reaction Biology Europe GmbH (formerly ProQinase)
T6 sequence (P30530 26-894): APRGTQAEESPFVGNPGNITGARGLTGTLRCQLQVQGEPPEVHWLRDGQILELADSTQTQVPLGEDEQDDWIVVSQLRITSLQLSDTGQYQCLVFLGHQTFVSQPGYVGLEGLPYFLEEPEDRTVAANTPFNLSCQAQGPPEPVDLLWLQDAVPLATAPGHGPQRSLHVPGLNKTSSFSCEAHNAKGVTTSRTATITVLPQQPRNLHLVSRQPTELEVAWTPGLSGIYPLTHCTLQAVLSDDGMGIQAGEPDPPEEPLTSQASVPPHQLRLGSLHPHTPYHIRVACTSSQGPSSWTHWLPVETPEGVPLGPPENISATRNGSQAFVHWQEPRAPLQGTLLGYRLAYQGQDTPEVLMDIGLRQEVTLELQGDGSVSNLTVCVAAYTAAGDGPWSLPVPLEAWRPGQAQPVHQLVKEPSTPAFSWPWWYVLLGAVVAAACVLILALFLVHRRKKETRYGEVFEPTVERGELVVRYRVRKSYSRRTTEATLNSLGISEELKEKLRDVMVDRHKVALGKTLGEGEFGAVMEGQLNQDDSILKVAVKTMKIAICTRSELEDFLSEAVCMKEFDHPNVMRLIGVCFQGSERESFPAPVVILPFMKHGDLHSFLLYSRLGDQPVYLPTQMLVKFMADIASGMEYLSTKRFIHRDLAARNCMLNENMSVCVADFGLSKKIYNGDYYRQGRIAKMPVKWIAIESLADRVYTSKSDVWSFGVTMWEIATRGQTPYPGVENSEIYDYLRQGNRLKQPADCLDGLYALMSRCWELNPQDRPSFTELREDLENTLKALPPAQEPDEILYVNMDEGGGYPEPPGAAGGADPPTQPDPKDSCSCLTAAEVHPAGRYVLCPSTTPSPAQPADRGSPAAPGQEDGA
On the procedure: as §1

T1 sequence (P53779 whole entry): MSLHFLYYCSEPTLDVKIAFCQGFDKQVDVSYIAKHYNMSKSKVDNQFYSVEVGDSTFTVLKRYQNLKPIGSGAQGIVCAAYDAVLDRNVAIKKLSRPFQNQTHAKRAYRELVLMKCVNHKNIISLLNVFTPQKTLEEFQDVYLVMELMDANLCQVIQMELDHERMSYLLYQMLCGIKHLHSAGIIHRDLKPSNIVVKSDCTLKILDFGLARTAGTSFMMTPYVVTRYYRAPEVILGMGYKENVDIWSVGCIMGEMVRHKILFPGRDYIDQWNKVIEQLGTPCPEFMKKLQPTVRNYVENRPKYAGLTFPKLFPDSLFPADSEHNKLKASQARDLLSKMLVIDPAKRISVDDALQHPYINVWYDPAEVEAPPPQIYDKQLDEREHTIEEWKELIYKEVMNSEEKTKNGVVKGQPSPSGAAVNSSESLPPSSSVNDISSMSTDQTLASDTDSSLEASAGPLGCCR

Regarding `c1ccc(CNc2cc(-c3c[nH]c4ncccc34)ccn2)cc1` [meriolin 36], the residual kinase activity at JNK3 (0.3 µM) is given as 54 % of control; at JNK3 (3 µM), 13 % of control; at DAPK1 (0.3 µM) it was 119 % of control; on DAPK1 (3 µM) it was 64 % of control; at CDK20/CycH (0.3 µM), 29 % of control; on CDK20/CycH (3 µM), 13 % of control. The residual kinase activity on STK17A (0.3 µM) is listed as 23 % of control; at STK17A (3 µM), 4 % of control; at DDR2 (0.3 µM), 59 % of control; on DDR2 (3 µM), 17 % of control; at AXL (0.3 µM), 75 % of control; on AXL (3 µM), 28 % of control.

`COc1ccnc2[nH]cc(-c3cc(N)nc(N)c3)c12` [meriolin 16]: the residual kinase activity is recorded as 73 % of control on JNK3 (0.03 µM); 68 % of control at JNK3 (0.3 µM); 112 % of control at DAPK1 (0.03 µM); 72 % of control on DAPK1 (0.3 µM); 38 % of control at CDK20/CycH (0.03 µM); 33 % of control on CDK20/CycH (0.3 µM). Further, the residual kinase activity at STK17A (0.03 µM) is reported as 83 % of control; on STK17A (0.3 µM), 23 % of control; on DDR2 (0.03 µM), 105 % of control; at DDR2 (0.3 µM) it was 93 % of control; on AXL (0.03 µM), 101 % of control; on AXL (0.3 µM), 75 % of control.
